What is called IC50 is the concentration that inhibits the measured activity by half.

These results are taken from US11071735B2, “Treatment of inflammatory conditions and autoimmune diseases with glucose uptake inhibitors” (Kadmon Corporation, LLC, priority 2017, dated 2021).

The subject of experiment [1] is MCP-1 secretion. The experiment in a line: MCP-1 secretion of LPS-treated THP1 monocytes (ELISA). The experiment is classed as cell-based. To be noted: THP1 cells, compound one hour prior to 16 hour 1 μg/ml LPS. The procedure: In FIG. 5A, THP1 cells were activated with 1 μg/ml LPS for 16 hrs prior to a one-hour glycolysis assay (Example 2+Oligomycin). In FIG. 5B, THP1 cells were treated with Example 2 one hour prior to a 16 hour treatment with 1 μg/ml LPS, after which MCP-1 secretion into the media was measured by ELISA (R&D systems) and cell number measured by Cell Titer Glo (Promega).
THP1 Monocyte assay: THP1 monocytic cancer cells were activated with 1 ug/ml LPS (Sigma-Aldrich). The previously described glycolysis assay was performed 16 hrs post-activation. For cytokine secretion, cells were pre-treated for one hour with GLUT inhibitors prior to 16 hours of 1 μg/ml LPS treatment.

For experiment [2], the system named is MOG-induced experimental autoimmune encephalitis. Briefly: mouse MOG-induced experimental autoimmune encephalitis (EAE) model. The experiment is classed as in vivo. To be noted: compared to vehicle control. An excerpt: In FIG. 4, Example 2 is shown to have efficacy against an in vivo mouse model of inflammation, MOG-induced experimental autoimmune encephalitis. Example 2 both delays the onset and lowers the end clinical score of inflammation in this model.
Mouse Prophylactic MOG-EAE Model: Performed at Hooke laboratories.

Experiment [3] has as its target T1, GLUT3 (Homo sapiens, UniProt P11169).
T1 construct: endogenous in cells; host or cells: DLD1 GLUT1−/− (knock-out) cancer cells
T1 sequence (P11169 1-496): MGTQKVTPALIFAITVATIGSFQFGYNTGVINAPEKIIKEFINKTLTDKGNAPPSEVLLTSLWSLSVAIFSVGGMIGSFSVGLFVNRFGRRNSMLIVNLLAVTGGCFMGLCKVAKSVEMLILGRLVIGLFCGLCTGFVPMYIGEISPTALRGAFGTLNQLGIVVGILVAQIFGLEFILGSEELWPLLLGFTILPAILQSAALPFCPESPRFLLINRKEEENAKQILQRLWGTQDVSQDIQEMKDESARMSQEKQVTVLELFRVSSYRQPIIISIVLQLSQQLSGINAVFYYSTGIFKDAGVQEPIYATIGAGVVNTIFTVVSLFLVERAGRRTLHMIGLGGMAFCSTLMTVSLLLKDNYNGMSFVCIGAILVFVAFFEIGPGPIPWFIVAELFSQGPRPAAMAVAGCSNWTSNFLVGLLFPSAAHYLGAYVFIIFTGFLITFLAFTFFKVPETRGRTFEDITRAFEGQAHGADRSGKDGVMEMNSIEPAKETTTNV
Briefly: glycolysis assay in DLD1 GLUT1−/− cells (rely on GLUT3). In kind it is cell-based. The settings on record: DLD1-KO (GLUT1−/−) cells; 10 μM oligomycin, one hour. The procedure, abridged: (§1)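 Cells […] exposed for 1 h to inhibitor plus 10 μM oligomycin to block mitochondrial ATP; remaining glycolytic ATP read by CellTiter-Glo luminescence. IC50 derived from dose-response curves.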

For experiment [4], the target named is T2, GLUT1 (Homo sapiens, UniProt P11166).
T2 construct: endogenous in cells; host or cells: DLD1 WT cancer cells
T2 sequence (P11166 1-492): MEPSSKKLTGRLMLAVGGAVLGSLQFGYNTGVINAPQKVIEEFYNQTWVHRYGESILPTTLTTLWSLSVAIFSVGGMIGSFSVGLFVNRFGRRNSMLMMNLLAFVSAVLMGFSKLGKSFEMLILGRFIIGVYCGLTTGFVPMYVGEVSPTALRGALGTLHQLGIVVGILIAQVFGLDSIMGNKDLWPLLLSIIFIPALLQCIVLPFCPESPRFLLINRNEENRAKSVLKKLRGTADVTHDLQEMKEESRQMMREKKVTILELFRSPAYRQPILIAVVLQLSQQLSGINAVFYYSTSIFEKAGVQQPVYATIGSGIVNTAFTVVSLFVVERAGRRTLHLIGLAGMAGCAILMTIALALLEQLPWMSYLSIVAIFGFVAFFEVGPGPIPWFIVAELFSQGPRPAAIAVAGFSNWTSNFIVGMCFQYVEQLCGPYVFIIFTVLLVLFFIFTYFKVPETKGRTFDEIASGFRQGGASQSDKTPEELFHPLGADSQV
Briefly: glycolysis assay in DLD1 WT cells (rely on GLUT1). The experiment is classed as cell-based. The settings on record: DLD1-WT cells; 10 μM oligomycin, one hour. Summed up:
as §1

The test system of experiment [5] is GLUT. Briefly: glycolysis assay (oligomycin + Cell Titer-Glo ATP readout) in HT1080 cells. The experiment is classed as cell-based. The settings on record: 10 μM oligomycin, one hour, glycolytically-derived ATP. The procedure, abridged: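 HT1080 cells exposed for one hour to compound plus 10 μM oligomycin to block mitochondrial ATP, so remaining ATP reflects glycolysis. Glycolytic ATP read by CellTiter-Glo luminescence; IC50 derived from dose-response curves.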

Experiment [6] relates to TNFalpha and MCP-1 levels. Briefly: LPS/D-galactosamine mouse model, cytokine production. The experiment is classed as in vivo. To be noted: 100 mg/kg p.o. The protocol:
100 μg LPS and 18 mg D-galactosamine were used to induce cytokine production. […] In FIG. 6, Example 2 is shown to modulate cytokine/chemokine production in response to LPS/D-galactosamine (mouse model of sepsis and liver damage). Example 2 prevents the dramatic increase of TNFalpha (FIG. 6A), a cytokine well-established as a major driver of inflammation. In line with in vitro results, Example 2 abrogates an initial increase in MCP-1 (FIG. 6B), but is unable to statistically suppress MCP1 induction at later time points (not shown). LPS Mouse Model: Performed at Pharmalegacy.

Turning to `CCOc1ccc2nc(-c3cccc(OCC(=O)NC(C)C)c3)nc(Nc3ccc(-c4cn[nH]c4)cc3)c2c1` [Ex. 2, 2-(3-(4-((4-(1H-pyrazol-4-yl)phenyl)amino)-6-ethoxyquinazolin-2-yl)phenoxy)-N-isopropylacetamide], the MCP-1 secretion result in experiment [1] is recorded as “inhibits cytokine/chemokine secretion”. Further, the end clinical score entry in experiment [2] (30 mg/kg p.o. daily) and in experiment [2] (100 mg/kg p.o. daily) was “lowered the end clinical score” throughout. In addition, the “onset of EAE” value in experiment [2] (30 mg/kg p.o. daily) and in experiment [2] (100 mg/kg p.o. daily) was “delayed onset” in each case. In addition, the IC50 in experiment [3] amounted to 60.9 nM; in experiment [4], 115 nM; in experiment [5] it was 149 nM. The “increase of MCP-1 levels” value in experiment [6] (2 hours post LPS/Galn) is on record as “unable to prevent a statistically significant increase”. For the same molecule, the “increase of MCP-1” value in experiment [6] (one hour following LPS/Galn) is “inhibits the increase”. Also, the “increase of TNFalpha” value in experiment [6] (one hour following LPS/Galn) is given as “inhibits the increase”.
